Laboratory results published in patent publication US6413948B1, “Pharmaceutical compositions and methods of effecting a neuronal activity in an animal using naaladase inhibitors” (Guilford Pharmaceuticals Inc., priority 1996, dated 2002).

System: Sprague-Dawley rats, 2 hour transient middle cerebral artery occlusion (MCAO)
Experiment: In vivo assay on brain injury following MCAO in Sprague-Dawley rats
Conditions: 100 mg/kg IP then 20 mg/kg/hr IV for 4 hours
Experimental: In the control group (n=8), the rats received an IP injection of saline 30 minutes post-occlusion followed by IV saline infusion at a rate of 0.5 ml/hr. […] There was a 15 minute delay between IP and IV treatments for each rat. Twenty two hours following the reperfusion, the rats were euthanized and their brains were removed. Seven coronal sections (2 mm thick) were taken and stained with 1% solution of 2,3,5-triphenyltetraxolium chloride (TTC) for 20 minutes and then fixed in 10% formalin. The anterior and posterior surface of the most rostral brain section and the posterior surface of each of the other 6 sections were imaged. The quantification of infarct size of each brain was obtained using a computer aided-digital imaging analysis system (LOATS). The brain regions completely lacking TTC-staining were characterized as representative of infarcted tissue. The total infarct volume for each rat was calculated by numeric integration of the respective sequential brain areas.
Male Sprague-Dawley rats (260-320 g) were used. Prior to the experiment, the rats were individually housed and allowed free access to food and water. Each rat received two surgeries: jugular vein cannulation for IV infusion and MCAO. During surgeries, the rat was anesthetized with […] delivered in oxygen via an inhalation mask. The body temperature was monitored and regulated at normothermic level using a homeothermic heating system. First, a PE-50 polyethylene catheter was inserted into the right jugular vein. One hour later, the rat was reanesthetized for MCAO surgery. The MCAO was achieved using the endovascular suture method described by Long et al., Stroke, Vol. 20, pp. 84-91 (1989). Specifically, the right external carotid artery (ECA) was exposed, coagulated and transected. A 3-0 monofilament nylon suture with a blunted tip was introduced into the proximal stump of the ECA via an arteriotomy and advanced 20 mm from the carotid bifurcation until it lodged in the proximal region of the anterior cerebral artery, thereby occluding the origin of the MCA. The rats were allowed to wake up; 2 hours later, the rats were reanesthetized for reperfusion, during which the nylon suture was retracted to the stump of the ECA allowing blood recirculation to the MCA.

O=C(O)CCC(CP(=O)(O)O)C(=O)O (stereo not shown) [2-(phosphonomethyl)pentanedioic acid]
mean total brain infarct volume (20 minute pre-treatment): 122±26 mm^3
mean total brain infarct volume (30 minute post-treatment): 208±40 mm^3
mean total brain infarct volume (60 minute post-treatment): 125±57 mm^3
mean total brain infarct volume (120 minute post-treatment): 133±35 mm^3
